This is an account of results in PMC8892843 (The Science of the total environment, 2021).

Usually IC50 stands for the concentration needed to halve the response being measured.

The target of test [1] is nicotinic receptor (nAChR) found in C. dilutus. Put plainly: competitive [3H]imidacloprid displacement, filtration. The settings on record: 1 nM [3H]IMI, pH 7.0, 20 °C, crude microsomes 100 μg/mL. The format is binding, Chironomus dilutus.
Test [2] concerns the target nicotinic receptor (nAChR) found in H. azteca. The description is as above. Format: binding, Hyalella azteca. The settings on record: 1 nM [3H]IMI, pH 7.0, 20 °C, crude microsomes 100 μg/mL.

Take `O=[N+]([O-])N=C1NCCN1Cc1ccc(Cl)nc1` [imidacloprid]: the IC50 in test [1] stood at 8.04 nM; in test [2], 8.86 nM.
